Data from patent US8034940B2, “Modulators of glucocorticoid receptor, AP-1, and/or NF-κB activity and use thereof” (Bristol-Myers Squibb Company, priority 2006, dated 2011).

Tests used:
[1] = target: T1, human full-length glucocorticoid receptor (Homo sapiens, UniProt P04150); assay: Glucocorticoid Receptor Binding Assay (I), fluorescence polarization, Fluormone GS Red; set-up: purified human recombinant full-length glucocorticoid receptor; purchased Invitrogen Part #2893; conditions: GR Binding Assay (I); read-out: GR (Ki, nM) (GR Binding Assay (I))
T1 sequence (P04150 1-777): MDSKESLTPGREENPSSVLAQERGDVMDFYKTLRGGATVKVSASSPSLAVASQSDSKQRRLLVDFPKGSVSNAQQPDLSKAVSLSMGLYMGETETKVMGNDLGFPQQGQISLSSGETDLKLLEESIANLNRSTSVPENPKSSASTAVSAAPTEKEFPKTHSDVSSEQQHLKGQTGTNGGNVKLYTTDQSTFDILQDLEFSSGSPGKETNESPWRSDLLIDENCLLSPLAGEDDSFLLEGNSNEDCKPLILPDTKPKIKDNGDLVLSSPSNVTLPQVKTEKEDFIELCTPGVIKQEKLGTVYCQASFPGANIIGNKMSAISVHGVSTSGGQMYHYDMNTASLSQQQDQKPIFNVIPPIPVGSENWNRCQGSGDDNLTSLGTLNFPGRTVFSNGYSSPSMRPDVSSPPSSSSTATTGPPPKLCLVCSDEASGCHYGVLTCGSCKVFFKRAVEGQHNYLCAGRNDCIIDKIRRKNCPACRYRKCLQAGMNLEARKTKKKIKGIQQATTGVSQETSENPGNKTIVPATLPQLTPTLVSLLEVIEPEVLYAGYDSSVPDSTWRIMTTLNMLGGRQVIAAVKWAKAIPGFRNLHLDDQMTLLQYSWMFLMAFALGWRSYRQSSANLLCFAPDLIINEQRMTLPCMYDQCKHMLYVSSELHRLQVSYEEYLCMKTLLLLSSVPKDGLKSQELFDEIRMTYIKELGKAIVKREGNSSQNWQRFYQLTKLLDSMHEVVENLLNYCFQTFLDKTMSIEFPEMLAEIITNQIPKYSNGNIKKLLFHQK
Experimental: Glucocorticoid Receptor Binding Assay (I)^a
Briefly, purified human recombinant full-length glucocorticoid receptor (2 nM) was mixed with fluorescently labeled glucocorticoid (1 nM Fluormone GS Red) in the presence or absence of test compound. After two hour incubation at room temperature in the dark, the fluorescence polarization (FP) of the samples was measured. […] Test compounds were analyzed in the concentration range from 8.5E-05 μM to 5 μM.

[2] = test system: AP-1 induced transcriptional activity; assay: Cellular Transrepressional Assay (AP-1 luciferase reporter, PMA-activated A549 cells); format: cell-based; conditions: for AP-1 Max % inh (Cellular Transrepression Assay) / Emax: maximum inhibition; for Emax: A549, 7 h, read-out: AP-1 Max % inh (Cellular Transrepression Assay)
How it was run: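 A549 cells stably carrying a 7× AP-1–luciferase reporter were stimulated with 10 ng/ml PMA with or without compound (0.1 nM–40 μM) for 7 h. Luminescence read 10 min after luciferase reagent; EC50 fitted from % decrease versus PMA-only signal.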

[3] = Homo sapiens, Cellular Transrepression Assay
[4] = Homo sapiens, A549, Cellular Transrepression Assay

Compound	EC50 ([2]; Cellular Transrepression Assay)	AP-1 Max % inh (Cellular Transrepression Assay) ([2]; Cellular Transrepression Assay)	Emax [2, 3]	EC50 [2, 4]	also measured
CC(C)(C(=O)Nc1nncs1)[C@H]1c2ccccc2Oc2nc(-c3ccc(C(=O)O)c(F)c3)ccc21 [Example 213]					Ki [1]: 7.95 nM
CC(C)C(=O)N1CC=C(c2ccc3c(n2)Oc2ccccc2[C@@H]3C(C)(C)C(=O)Nc2nncs2)CC1 [Example 409]					Ki [1]: 78.2 nM
CC(C)(C(=O)Nc1nncs1)C1c2ccccc2Oc2cc(NC(=O)NCc3ccccc3)ccc21 (stereo not drawn) [Example 122]					Ki [1]: 80 nM
CN(C)C(=O)CN(C)C(=O)c1ccc(-c2ccc3c(n2)Oc2ccccc2[C@@H]3C(C)(C)C(=O)Nc2nncs2)cc1 [Example 319]					Ki [1]: 110 nM
Cc1nnc(NC(=O)C(C)(C)C2c3ccccc3Oc3cc(-c4ccc(C(=O)N5CCOCC5)cc4)ncc32)s1 (stereo not drawn) [Example 493]					Ki [1]: 109 nM
CN(C)C(=O)c1ccc(-c2ccc3c(n2)Oc2ccccc2C3C(C)(C)C(=O)Nc2ncc[nH]2)cc1 (stereo not drawn) [Example 440]					Ki [1]: 21 nM
CN(CCc1ccccn1)C(=O)c1ccc(-c2ccc3c(n2)Oc2ccccc2[C@@H]3C(C)(C)C(=O)Nc2nncs2)cc1 [Example 299]					Ki [1]: 13.3 nM
CN(Cc1ccccc1)C(=O)c1ccc(-c2ccc3c(n2)Oc2ccccc2[C@@H]3C(C)(C)C(=O)Nc2nncs2)cc1 [Example 255]					Ki [1]: 16.1 nM
CC(C(=O)Nc1nncs1)C1c2ccccc2Oc2nc(-c3ccc(C(=O)N(C)C)cc3)ccc21 (mixture of isomers) [Example 482]					Ki [1]: 45 nM
CC(C)(C(=O)Nc1nncs1)[C@H]1c2ccccc2Oc2nc(-c3ccc(C(=O)N4CCC[C@@H](O)C4)cc3)ccc21 [Example 284]					Ki [1]: 17.4 nM
CN1CCCN(C(=O)c2ccc(-c3ccc4c(n3)Oc3ccccc3[C@@H]4C(C)(C)C(=O)Nc3nncs3)cc2)CC1 [Example 297]					Ki [1]: > 1150 nM
CC(C)(C(=O)Nc1nncs1)[C@H]1c2ccccc2Oc2nc(-c3ccc(C(=O)N4CCC(CO)CC4)cc3)ccc21 [Example 279]					Ki [1]: 20.8 nM
CC(O)c1ccc(-c2ccc3c(n2)Oc2ccccc2C3C(C)(C)C(=O)Nc2nncs2)cc1 (mixture of isomers) [Example 239]	12.4 nM	44.85%			
CC(C)(C(=O)Nc1nncs1)C1c2ccccc2Oc2cc(OC(=O)NCCc3ccc(F)cc3)ccc21 (stereo not drawn) [Example 381]	45.2 nM	52.00%			
COc1ccc2c(c1)Oc1ccccc1[C@@H]2C(C)(C)C(=O)Nc1nc(Cc2ccc(-c3cccnc3)cc2)cs1 [Example 59]			58.4%	11.8 nM	
CC(C)(C(=O)Nc1nncs1)C1c2ccccc2Oc2nc(-c3ccc(OCc4ccccc4)cc3)ccc21 (stereo not drawn) [Example 202]	219 nM	38.37%			
CN(C)C(=O)c1ccc(-c2ccc3c(n2)Oc2ccccc2C3C(C)(C)C(=O)NC2=NCCS2)cc1 (stereo not drawn) [Example 442]			50.1%	127 nM	
Cn1cc(-c2ccc(Cc3csc(NC(=O)C(C)(C)C4c5ccccc5Oc5ccccc54)n3)cc2)cn1 [Example 42]			73.4%	3.7 nM	
Cc1nnc(NC(=O)C(C)(C)C2c3ccc(-c4ccc(C(=O)N(C)C)c(F)c4)nc3Oc3c(F)cccc32)s1 (stereo not drawn) [Example 165]			53.4%	9.8 nM	
COc1ccc(CNc2ccc3c(n2)Oc2ccccc2[C@@H]3C(C)(C)C(=O)Nc2nncs2)cc1 [Example 140]			64.1%	93.7 nM	
Cc1ccc(-c2csc(NC(=O)CC3c4ccccc4Oc4ccccc43)n2)c2ccccc12 [Example 3]			47.8%		

Compound	EC50 ([2]; Cellular Transrepression Assay)	AP-1 Max % inh (Cellular Transrepression Assay) ([2]; Cellular Transrepression Assay)	Emax [2, 3]	EC50 [2, 4]	also measured
CCCCc1ccc(-c2ccc3c(n2)Oc2ccccc2C3C(C)(C)C(=O)Nc2nncs2)cc1 (stereo not drawn) [Example 212]	19.6 nM	63.05%			
CCCC/C=C/c1ccc2c(n1)Oc1ccccc1[C@@H]2C(C)(C)C(=O)Nc1nncs1 [Example 436]			44%	95.7 nM	
CC(C)(C(=O)Nc1nncs1)C1c2ccccc2Oc2cc(NC(=O)NC3CCCC3)ccc21 (stereo not drawn) [Example 125]			33.2%	94.3 nM	
CCN(C)C(=O)c1ccc(-c2ccc3c(n2)Oc2ccccc2[C@@H]3C(C)(C)C(=O)Nc2nncs2)cc1Cl [Example 345]	124 nM	54.25%			
CC(C)(C(=O)Nc1nc(-c2cccc3ccccc23)cs1)C1c2ccccc2Oc2nc(Cl)ccc21 (stereo not drawn) [Example 74]			71.2%	319 nM	
CC(C)(C(=O)Nc1nncs1)C1c2ccccc2Oc2nc(NCc3ccccc3)ccc21 (stereo not drawn) [Example 133]			61.3%	585 nM	
Cc1nnc(NC(=O)C(C)(C)C2c3ccc(-c4ccc(C(=O)N(C)C)cc4)nc3Oc3c(F)cccc32)s1 (stereo not drawn) [Example 166]	43.4 nM		56.1%		EC50 ([2]; Cellular Transrepression Assay, listed as 166^a): 14.5 nM
Cc1nnc(NC(=O)C(C)(C)[C@H]2c3ccccc3Oc3nc(-c4ccc(C(=O)N5CCC(F)(F)C5)c(F)c4)ccc32)s1 [Example 477]			44.8%	39.8 nM	
CNC(=O)c1ccc(-c2ccc3c(n2)Oc2ccccc2[C@@H]3C(C)(C)C(=O)Nc2nncs2)cc1 [Example 348]			34.4%	300 nM	
CCN(C)C(=O)c1ccc(-c2ccc3c(n2)Oc2ccccc2[C@@H]3C(C)(C)C(=O)Nc2nncs2)cc1F [Example 336]	20.4 nM	55.80%			
CC(C)(C(=O)Nc1nncs1)[C@H]1c2ccccc2Oc2nc(-c3ccc(C(=O)N4CCC(F)(F)CC4)c(Cl)c3)ccc21 [Example 339]			38.4%	185 nM	
CC(C)Oc1ccc(-c2ccc3c(n2)Oc2ccccc2C3C(C)(C)C(=O)Nc2nncs2)cc1F (stereo not drawn) [Example 211]	41.3 nM	49.63%			
CC(C)(C(=O)Nc1nncs1)[C@H]1c2ccccc2Oc2nc(-c3ccc(C(=O)N4CCCCC4)c(F)c3)ccc21 [Example 249]	11.2 nM	42.38%			
CC(C)(C(=O)Nc1nncs1)[C@H]1c2ccccc2Oc2nc(-c3ccc(C(=O)N4CCOCC4)c(Cl)c3)ccc21 [Example 328]	18.6 nM	66.06%			
CC(C)(C(=O)Nc1nncs1)C1c2ccccc2Oc2nc(-c3ccc(CC(=O)O)cc3)ccc21 (stereo not drawn) [Example 231]	733 nM	38.36%			
COc1ccc(Cc2csc(NC(=O)C(C)(C)C3c4ccccc4Oc4cc(OC)ccc43)n2)cc1 (stereo not drawn) [Example 49]			68.8%	40.3 nM	
O=C(c1ccc(-c2ccc3c(n2)Oc2ccccc2C3C2(C(=O)Nc3nncs3)CCC2)cc1)N1CCOCC1 (stereo not drawn) [Example 486]			50.3%	15.8 nM	
CC(C)(C(=O)Nc1nncs1)C1c2ccccc2Oc2cc(OC(=O)NCCc3cccs3)ccc21 (stereo not drawn) [Example 376]	34.4 nM	45.09%			
Cc1cnc(NC(=O)C(C)(C)C2c3ccccc3Oc3nc(-c4ccc(C(=O)N(C)C)cc4)ccc32)s1 (stereo not drawn) [Example 364]	244 nM	58.90%			
CC(C)(C(=O)Nc1nncs1)[C@H]1c2ccccc2Oc2nc(-c3ccc(C(=O)N4CCCC4)c(Cl)c3)ccc21 [Example 341]	14.8 nM	50.27%			
Cc1ccc(-c2ccc3c(n2)Oc2ccccc2C3C(C)(C)C(=O)Nc2nncs2)cc1 (stereo not drawn) [Example 170]	182 nM	44.12%			
